The source of these data is publication PMC4766439, “Discovery of novel PDE9 inhibitors capable of inhibiting Aβ aggregation as potential candidates for the treatment of Alzheimer’s disease” (Scientific Reports, 2016).

Series [1] deals with T1, PDE3A (679–1087) (Homo sapiens, UniProt Q14432).
T1 construct: PDE3A (679–1087)
Kind of series: PDE activity assay, PDE3A catalytic domain. It is filed as biochemical.
Experimental: (§1) The enzymatic activities of the catalytic domains of PDE9 and other PDEs were measured by using cGMP or cAMP as substrates. The assay buffer contained 20–50 mM Tris–HCl (pH 7.5–8.0), 10 mM MgCl2 or 4 mM MnCl2, 1 mM DTT, and 10–20 nM ^3H-cGMP or ^3H-cAMP (20000–30000 cpm/assay, GE Healthcare). The reaction was performed at room temperature for 15 min and then terminated by the addition of 0.2 M ZnSO4. The addition of 0.25 M BaSO4 precipitated the generated ^3H-GMP, whereas the unreacted ^3H-cGMP remained in solution. The radioactivity in the supernatant was measured in 2.5 mL with an Ultim Gold liquid scintillation counter. […] The IC50 values were calculated by nonlinear regression method by using GraphPad Prism 5.0 Software.

Series [2] addresses T2, PDE1B2 (10–487) (Homo sapiens, UniProt Q01064).
T2 construct: PDE1B2 (10–487)
As to the kind of experiment: PDE activity assay, PDE1B2 catalytic domain. It counts as biochemical.
Experimental: as §1

Series [3] deals with PDE5A1 (535–860) (Homo sapiens, UniProt O76074). As to the kind of experiment: PDE activity assay, PDE5A1 catalytic domain. It counts as biochemical.
Experimental: as §1
For series [4], the system named is SH-SY5Y cells. As to the kind of experiment: MTT cytotoxicity assay. The following applies: below the 10 μM concentration, 48 h. It is filed as cell-based, human. On the technique in general: Tetrazolium dyes change colour on reduction, which living cells bring about.
Series [5] concerns the target T3, PDE10A2 (448–789) (Homo sapiens, UniProt Q9Y233).
T3 construct: PDE10A2 (448–789)
Kind of series: PDE activity assay, PDE10A2 catalytic domain. It is filed as biochemical.
Experimental: as §1

A short description of series [6]: PAMPA-BBB in vitro blood-brain barrier permeation assay. It is filed as in vitro ADME.
Experimental: The blood–brain barrier penetration capacity of the compounds was evaluated by using the parallel artificial membrane permeation assay (PAMPA). […] The porcine brain lipid (PBL) was obtained from Avanti Polar Lipids. The donor microplate (PVDF membrane, pore size of 0.45 nm) and the acceptor microplate were from Millipore. The acceptor 96-well microplate (COSTAR) was filled with 300 μL of a PBS/EtOH mixture (7:3) and the filter membrane was impregnated with 4 μL of PBL in dodecane (20 mg/mL). The compounds were dissolved in DMSO at a concentration of 5 mg/mL and diluted with the PBS/EtOH mixture (7:3) to a concentration of 100 μg /mL. Then, 200 μL of this solution was added to the donor wells and the wells were carefully placed on the acceptor plate, which was then incubated for 10 h at 25 °C in a vibrationless environment. After the incubation, the donor plate was removed and the concentration of compounds in the acceptor wells was determined with a UV plate reader (Flexstation 3). Each sample was analyzed at five wavelengths in four wells, and at least three independent runs were performed. The results are expressed as the mean ± standard deviation. In these experiments, 13 quality control standards of known BBB permeability were included to validate the analysis set.
where Vd is the volume in the donor well, Va is the volume in acceptor well, A is the filter area, t is the permeation time, [drug]acceptor is the absorbance of the compound in the acceptor well, and [drug]equilibrium is the theoretical equilibrium absorbance.
Series [7] concerns the target T4, PDE7A1 (130–482) (Homo sapiens, UniProt Q13946).
T4 construct: PDE7A1 (130–482)
Kind of series: PDE activity assay, PDE7A1 catalytic domain. It is filed as biochemical.
Experimental: as §1

The target in series [8] is T5, PDE4D2 (86–413) (Homo sapiens, UniProt Q08499).
T5 construct: PDE4D2 (86–413)
Kind of series: PDE activity assay, PDE4D2 catalytic domain. It counts as biochemical.
Experimental: as §1

Series [9] in a line: Oxygen Radical Absorbance Capacity (ORAC-FL) assay. Conditions: Trolox as standard.
Experimental: The assays were performed in 75 mM PBS (pH 7.4) and all the tested compounds were dissolved in DMSO and diluted with the PBS. Trolox was used as a standard (1–10 μM final concentration). The tested compounds at different concentrations (20 μL, final concentration: 2 μM) and fluorescein (FL, 120 μL, final concentration: 300 nM) were placed in the wells of a black 96-well plate. The mixture was incubated for 10 min at 37 °C and then, APPH solution (60 μL, final concentration: 12 mM diluted by 75 mM PBS) was added rapidly. […] A blank (FL + AAPH), with PBS replacing the compounds and Trolox was used for calibration in each assay. The compounds were tested at different concentrations (0.5–10 μM). The experiments were performed in three independent runs for each sample. The fluorescence measurements were normalized to that of the blank (without antioxidant). The area under the fluorescence decay curve (AUC) was calculated using the following equation (eq. 2):
where f0 is the fluorescence reading at 0 min and fi is the fluorescence reading at time i. The net AUC was calculated by the expression AUCsample − AUCblank. Regression equations between net AUC and Trolox concentrations were calculated. The final results were expressed in μM of Trolox equivalent/μM of pure compounds.
A short description of series [10]: Cu-ascorbate redox system (CCA fluorescence). The following applies: [Cu^2+] = 5 μM, [16] = 15 μM, ascorbate 150 μM, CCA 50 μM, PBS pH 7.4. Here is the method: The experiments were performed as reported previously. […]. Then, ascorbate (150 μM) was added to the solution, and the fluorescence was recorded every 20 s (λexcitation = 395 nm, λemission = 450 nm). Each experiment was performed in triplicate. All test solutions contained 1 μM desferryl and 0.1% methanol.

For series [11], the target named is T6, PDE2A3 (580–941) (Homo sapiens, UniProt O00408).
T6 construct: PDE2A3 (580–941)
Kind of series: PDE activity assay, PDE2A3 catalytic domain. It is filed as biochemical.
Experimental: as §1

The nature of series [12]: Metal-chelating capacity by UV-vis spectrophotometry. It counts as physicochemical. The following applies: 30% (v/v) ethanol/buffer, pH 7.4. Here is the method:
The experiments were performed according to previously reported methods. The metal chelation was monitored spectrophotometrically using a UV–vis spectrophotometer. […].

Series [13] can be described thus: Lipid-water distribution coefficient, shake-flask 1-octanol/water. It is filed as physicochemical. The following applies: 1-octanol/water (1:1), means of at least three independent tests.
Series [14] concerns the target T7, Aβ1-42 fibrils (Homo sapiens, UniProt P05067).
T7 construct: purchased Sigma
Kind of series: ThT assay, disaggregation of Cu^2+-induced Aβ1-42 fibrils. It is filed as biochemical. Conditions: [Aβ1-42] = 25 μM, compound 50 μM, [Cu^2+] = 25 μM, additional 24 h. The method, then: For assaying the disaggregation of the copper (II)-induced Aβ1-42 fibrils, the Aβ1-42 stock solution was first diluted in HEPES buffer ([…], pH 6.6). The mixture of the peptide (10 μL, 25 μM final concentration) and copper (II) (10 μL, 25 μM final concentration) was then incubated at 37 °C for 24 h. Then, the test compound (10 μL, 50 μM final concentration) was added and incubated at 37 °C for an additional 24 h. Thereafter, 30 μL of the sample was diluted to a final volume of 200 μL with 50 mM glycine-NaOH buffer (pH 8.0) containing thioflavin-T (5 μM) in the dark. The detection method used was the same as that described above.

Series [15] deals with T8, Aβ1-42 (Homo sapiens, UniProt P05067).
T8 construct: purchased Sigma
As to the kind of experiment: Transmission electron microscopy (TEM) assay of Aβ1-42. It is filed as biochemical. The following applies: [Aβ1-42] = 25 μM, compound 50 μM, [Cu^2+] = 25 μM, 37 °C, 24 h. The method, then: The assays were performed as reported previously. For the TEM assay of copper (II)-induced Aβ1-42 aggregation and the disaggregation of the fibrils, the samples were pretreated as described for the ThT assay. Samples (10 μL) were placed on a carbon-coated copper/rhodium grid for 2 min. Then, each grid was stained with uranyl acetate (1%, 5 μL) for 2 min. After the excess staining solution was drained off, the specimen was transferred for imaging by a transmission electron microscope (JEOL JEM-1400).

The target in series [16] is T9, PDE8A1 (480–820) (Homo sapiens, UniProt O60658).
T9 construct: PDE8A1 (480–820)
As to the kind of experiment: PDE activity assay, PDE8A1 catalytic domain. It counts as biochemical.
Experimental: as §1

Series [17] has as its system SH-SY5Y cells. Kind of series: Intracellular antioxidant activity (DCFH-DA, t-BuOOH). It is filed as cell-based, human. Conditions: t-BuOOH-induced; 5 μM of 16 vs 10 μM of Trolox. Here is the method:
Cell culture was performed as reported previously. The human neuron-like cell line SH-SY5Y was obtained from the Institute of Biochemistry and Cell Biology, Shanghai Institute for Biological Sciences (Shanghai, China). The cells were cultured at 37 °C in a humidified atmosphere of 5% CO2 in Dulbecco’s modified Eagle’s medium (DMEM, GIBCO) supplemented with 10% fetal calf serum (FCS, GIBCO), 1 mM glutamine, 100 IU/mL penicillin, and 100 μg/mL streptomycin.
The antioxidant activity was determined as reported previously. The SH-SY5Y cells were seeded at a density of 1 × 10^4 cells/well in a 96-well plate. After 24 h, the culture medium was replaced with medium containing tested compounds, and the cells were cultured for an additional 24 h. Then, the cells were washed with PBS and incubated with 5 μM DCFH-DA (diluted by PBS) at 37 °C for 30 min. […] Then, the fluorescence of the cells in each well was measured (λexcitation = 485 nm, λemission = 535 nm) with a multifunctional microplate reader (Flex Station 3). The antioxidant activity was expressed as a percentage relative to that of the control cells and calculated using the formula (Ft – Fnt)/(Ft’ – Fnt) ×100, where Ft is the fluorescence value of the cells treated with the tested compound, Ft’ is the fluorescence value of the cells not treated with the tested compound, and Fnt is the fluorescence value of the cells treated with t-BuOOH.

T8 sequence (P05067 672-713 limits assumed): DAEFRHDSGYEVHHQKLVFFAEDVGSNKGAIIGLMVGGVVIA
T1 sequence (Q14432 679-1087): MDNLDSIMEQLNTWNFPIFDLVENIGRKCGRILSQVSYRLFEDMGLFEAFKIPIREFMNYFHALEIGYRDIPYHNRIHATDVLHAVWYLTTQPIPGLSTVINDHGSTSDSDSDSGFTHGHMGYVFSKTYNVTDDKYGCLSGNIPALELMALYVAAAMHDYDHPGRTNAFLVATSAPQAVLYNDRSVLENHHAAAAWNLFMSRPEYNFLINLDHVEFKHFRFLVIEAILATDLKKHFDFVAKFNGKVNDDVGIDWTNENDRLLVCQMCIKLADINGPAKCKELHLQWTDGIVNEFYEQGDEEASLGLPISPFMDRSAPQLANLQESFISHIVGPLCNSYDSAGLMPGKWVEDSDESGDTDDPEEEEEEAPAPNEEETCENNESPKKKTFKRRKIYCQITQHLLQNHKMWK
T6 sequence (O00408 580-941): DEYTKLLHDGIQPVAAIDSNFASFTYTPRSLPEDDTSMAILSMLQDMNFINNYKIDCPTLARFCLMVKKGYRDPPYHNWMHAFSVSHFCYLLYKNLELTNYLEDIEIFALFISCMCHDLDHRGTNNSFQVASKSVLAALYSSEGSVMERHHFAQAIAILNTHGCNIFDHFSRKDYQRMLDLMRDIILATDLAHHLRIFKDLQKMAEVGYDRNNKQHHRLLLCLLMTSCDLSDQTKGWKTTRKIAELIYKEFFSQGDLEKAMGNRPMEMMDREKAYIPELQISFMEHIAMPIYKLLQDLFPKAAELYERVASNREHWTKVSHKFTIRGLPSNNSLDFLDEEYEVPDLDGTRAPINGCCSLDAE
T9 sequence (O60658 480-820): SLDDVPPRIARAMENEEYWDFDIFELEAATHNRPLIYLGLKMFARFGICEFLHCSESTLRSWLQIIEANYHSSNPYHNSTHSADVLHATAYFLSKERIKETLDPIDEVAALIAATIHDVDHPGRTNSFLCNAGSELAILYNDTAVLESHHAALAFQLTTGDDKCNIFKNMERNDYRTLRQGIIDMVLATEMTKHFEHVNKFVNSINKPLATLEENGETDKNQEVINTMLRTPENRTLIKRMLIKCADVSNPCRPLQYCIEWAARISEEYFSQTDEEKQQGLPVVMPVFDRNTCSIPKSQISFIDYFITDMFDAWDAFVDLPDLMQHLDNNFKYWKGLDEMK
T3 sequence (Q9Y233 714-1055): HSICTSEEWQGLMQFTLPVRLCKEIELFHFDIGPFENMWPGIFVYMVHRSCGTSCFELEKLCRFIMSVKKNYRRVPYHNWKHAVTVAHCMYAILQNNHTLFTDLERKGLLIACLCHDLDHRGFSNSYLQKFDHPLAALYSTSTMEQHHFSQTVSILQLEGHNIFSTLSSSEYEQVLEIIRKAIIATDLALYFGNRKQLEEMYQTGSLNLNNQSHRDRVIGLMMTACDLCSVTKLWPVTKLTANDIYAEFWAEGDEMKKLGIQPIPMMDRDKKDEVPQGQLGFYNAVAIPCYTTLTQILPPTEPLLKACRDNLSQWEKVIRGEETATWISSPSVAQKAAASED
T2 sequence (Q01064 10-487 isoform Q01064-2): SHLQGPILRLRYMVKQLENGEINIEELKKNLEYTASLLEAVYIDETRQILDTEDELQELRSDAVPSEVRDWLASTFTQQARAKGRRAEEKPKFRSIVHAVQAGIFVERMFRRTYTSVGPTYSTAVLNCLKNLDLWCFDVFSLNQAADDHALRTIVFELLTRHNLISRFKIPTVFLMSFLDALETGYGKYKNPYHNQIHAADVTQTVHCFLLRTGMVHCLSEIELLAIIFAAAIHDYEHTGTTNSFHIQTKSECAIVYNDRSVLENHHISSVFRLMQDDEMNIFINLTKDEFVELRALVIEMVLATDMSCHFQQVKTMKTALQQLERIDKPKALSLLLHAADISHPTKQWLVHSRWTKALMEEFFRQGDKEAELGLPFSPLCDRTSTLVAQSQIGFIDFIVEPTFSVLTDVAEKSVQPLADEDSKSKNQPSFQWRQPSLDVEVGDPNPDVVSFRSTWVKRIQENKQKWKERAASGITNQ
T5 sequence (Q08499 388-715): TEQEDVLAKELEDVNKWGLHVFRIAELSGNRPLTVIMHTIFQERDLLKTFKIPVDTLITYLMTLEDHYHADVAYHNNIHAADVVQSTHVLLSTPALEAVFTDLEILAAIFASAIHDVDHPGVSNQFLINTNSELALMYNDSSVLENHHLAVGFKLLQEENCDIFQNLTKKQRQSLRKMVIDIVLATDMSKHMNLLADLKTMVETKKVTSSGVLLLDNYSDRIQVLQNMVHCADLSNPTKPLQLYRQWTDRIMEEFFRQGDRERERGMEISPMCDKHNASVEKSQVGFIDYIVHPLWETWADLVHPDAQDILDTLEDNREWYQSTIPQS
T7 sequence (P05067 672-713 limits assumed): as the sequence (P05067 672-713 limits assumed) above
T4 sequence (Q13946 130-482): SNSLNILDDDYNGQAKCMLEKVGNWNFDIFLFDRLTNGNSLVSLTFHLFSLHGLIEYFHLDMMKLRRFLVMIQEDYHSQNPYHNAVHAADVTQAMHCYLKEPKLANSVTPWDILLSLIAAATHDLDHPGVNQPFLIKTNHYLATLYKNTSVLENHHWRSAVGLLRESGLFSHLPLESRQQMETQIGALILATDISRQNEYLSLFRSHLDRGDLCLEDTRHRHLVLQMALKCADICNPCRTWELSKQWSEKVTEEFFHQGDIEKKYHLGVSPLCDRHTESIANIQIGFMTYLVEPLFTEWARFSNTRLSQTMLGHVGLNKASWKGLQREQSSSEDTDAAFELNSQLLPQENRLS

Turning to `COc1ccc(CN[C@H](C)c2nc3c(cnn3C3CCCC3)c(=O)[nH]2)c(O)c1` [Compound 16], the IC50 is above 10000 nM in series [1]; 17000 nM in series [2]; 1900 nM in series [3]; 6900 nM in [5]; above 50000 nM in series [7]; 25000 nM in [8]. Besides, the half-inhibitory concentration (IC50) in series [11] and in series [16] was above 50000 nM each time. Moreover, in series [4], the “cytotoxicity toward SH-SY5Y cells (MTT)” value was “nearly no toxicity”. In addition, the Papp at 10 h, 100 μg/mL in series [6] (PAMPA, PBS:EtOH (70:30), mean ± SD of three independent experiments, read-out: Permeability) was 17 ×10⁻⁶ cm/s. Also, the “prediction of penetration into the CNS” value in series [6] (from PAMPA-BBB Pe) was “CNS+ (Compounds of high BBB permeation (CNS+) Pe > 4.7)”. Moreover, the ORAC in series [9] is 4.47 ± 0.10 μmol of Trolox equiv/μmol tested compound. Also, the “oxygen radical absorbance capacity, ORAC-FL value” in series [9] is reported as 4.47 ORAC-FL units. In series [10], the “copper redox cycling, OH· production (7-hydroxyl-CCA fluorescence)” value is recorded as “fully inhibited”. Besides, the “chelation of Cu^2+, Fe^2+, Zn^2+ (UV-vis absorbance changes)” value in [12] is on record as “formation of 16-Metal ion (II) complex”. In addition, the “chelation of Fe^3+ (UV-vis)” value in [12] is “failed to chelate Fe^3+ effectively”. The compound further yielded a logP at 30 min in series [13] of 1.1. Also, the “disaggregation of Cu^2+-induced Aβ1-42 fibrils (ThT)” value in [14] is 64.6%. Also, the “Aβ fibrils by TEM, disaggregation of preformed fibrils” value in series [15] is “drastically reduced the amount of Aβ fibrils”. For the same compound, the “Aβ fibrils by TEM, inhibition of Cu^2+-induced aggregation” value in [15] was “fewer fibrils were observed than in the presence of CQ”. Also, the “intracellular antioxidant activity (ROS, DCFH-DA)” value in series [17] is “superior antioxidant activity to that of Trolox”.

Usually IC50 stands for the concentration at which inhibition is half-maximal. High values mean a need for much substance, low ones inhibition by little substance. As a reminder, the logP is the decadic logarithm of the partition coefficient of the neutral form, usually between octanol and water. Lower therefore signals a more hydrophilic compound.
